Each structure is given as a SMILES string.

Holding throughout (type): cell-based
The test system of one assay is KM12 cells. In words: KM12 cells proliferation inhibition (MTS), mechanism-based assay for TRK. The note with it: Homo sapiens, KM12, 72 h. A digest of the protocol:
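KM12 cells (1000 cells/well, RPMI-1640 plus 10% FBS) were treated with compounds at 1.5–10000 nM final for 72 h at 37 °C. Viability was measured by MTS for 2 h, stopped with SDS, with absorbance read at 490 nm (650 nm reference). IC50 was calculated from the readings.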

The target of another assay is T1, TPM3-TRKA (Homo sapiens, UniProt P04629).
T1 construct: TPM3 (tropomyosin alpha-3, P06753) fusion partner; expressed in transfected cells; host or cells: Ba/F3; the other entry of the earlier key: TPM3 (P06753, Tropomyosin alpha-3 chain)
The assay can be described thus: Engineered Ba/F3 cell proliferation inhibition (MTS), TPM3-TRKA. The following applies: 72 h. The source says: (§1) MTS testing kit was purchased from Promega (Madison, Wis., USA). The RPMI-1640, Fetal bovine serum and Penicillin-Streptomycin were purchased from Gibco (San Francisco, Calif., USA). Dimethyl sulfoxide (DMSO) and Puromycin were purchased from Sigma (St. Louis., Mo., USA). Mouse interleukin-3 (IL-3) was purchased from Cell signaling Technology (Boston, Mass., USA).
(§2) To investigate whether a compound is able to inhibit the activity of TRK fusion mutation in cells, a mechanism-based assay using engineered Ba/F3 cell lines stably overexpressing oncogenic rearrangement or gene mutation of TRK (TPM3-TRKA, TPM3-TRKA-G595R, AFAP1-TRKB, ETV6-TRKC and ETV6-TRKC-G623R) were developed. In this assay, inhibition of TRK fusion mutation was detected by the cell proliferation inhibition of engineered Ba/F3 cells. Engineered Ba/F3 cells were cultured in culture flasks to 40-80% confluence in RPMI-1640 supplemented with 10% fetal bovine serum, 2 ug/mL puromycin. Cells were collected and plated onto 96-well plates at desired cell density (Ba/F3-TPM3-TRKA: 3×10^4/mL, Ba/F3-TPM3-TRKA-G595R: 1×10^5/mL, Ba/F3-AFAP1-TRKB: 1×10^5/mL, Ba/F3-ETV6-TRKC: 3×10^4/mL, Ba/F3-ETV6-TRKC-G623R: 3×10^4/mL). Plates were incubated at 37° C., with 5% CO2 for 4 h. Compounds were then added to the plates with the final compound concentrations of 10000, 3333, 1111, […], 123, 41.2, 13.7, 4.6 and 1.5 nM. Plates were incubated at 37° C., with 5% CO2 for 72 h. A mixture of 20 μl MTS/100 μl medium were added to each well and the plates were incubated at 37° C., with 5% CO2 for exactly 2 h. The reaction was stopped by adding 25 μl of 10% SDS per well. The absorbance was measured at 490 nm and 650 nm (reference wavelength). IC50 was calculated using GraphPad Prism 5.0 software.

The target of the next assay is T2, ETV6-TRKC (Homo sapiens, UniProt Q16288).
T2 construct: fused on or other part: P41212 (Transcription factor ETV6)
The assay can be described thus: Engineered Ba/F3 cell proliferation inhibition (MTS), ETV6-TRKC. The note with it: 72 h.
From the text: as §1, §2

Another assay addresses T3, TPM3-TRKA-G595R (Homo sapiens, UniProt P04629, G595R).
T3 construct: TPM3 (tropomyosin alpha-3, P06753) fusion partner; expressed in transfected cells; host or cells: Ba/F3; the other entry of the earlier key: TPM3 (P06753, Tropomyosin alpha-3 chain)
In words: Engineered Ba/F3 cell proliferation inhibition (MTS), TPM3-TRKA-G595R. The following applies: 72 h.
From the text: as §1, §2

For another assay, the target named is T4, ETV6-TRKC-G623R (Homo sapiens, UniProt Q16288, G623R).
T4 construct: fused on or other part: P41212 (Transcription factor ETV6)
The assay can be described thus: Engineered Ba/F3 cell proliferation inhibition (MTS), ETV6-TRKC-G623R. The following applies: 72 h.
From the text: as §1, §2

T1 sequence (P04629 510-796 limits assumed): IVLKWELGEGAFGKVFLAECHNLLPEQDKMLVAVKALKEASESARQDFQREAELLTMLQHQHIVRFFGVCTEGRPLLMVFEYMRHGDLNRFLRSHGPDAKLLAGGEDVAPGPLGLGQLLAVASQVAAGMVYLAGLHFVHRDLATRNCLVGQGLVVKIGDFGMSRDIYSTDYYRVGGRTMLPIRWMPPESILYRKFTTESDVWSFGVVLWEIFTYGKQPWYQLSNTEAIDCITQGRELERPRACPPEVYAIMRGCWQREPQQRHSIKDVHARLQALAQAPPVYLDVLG
T4 sequence (Q16288 whole entry G623R, the tested form may be a part): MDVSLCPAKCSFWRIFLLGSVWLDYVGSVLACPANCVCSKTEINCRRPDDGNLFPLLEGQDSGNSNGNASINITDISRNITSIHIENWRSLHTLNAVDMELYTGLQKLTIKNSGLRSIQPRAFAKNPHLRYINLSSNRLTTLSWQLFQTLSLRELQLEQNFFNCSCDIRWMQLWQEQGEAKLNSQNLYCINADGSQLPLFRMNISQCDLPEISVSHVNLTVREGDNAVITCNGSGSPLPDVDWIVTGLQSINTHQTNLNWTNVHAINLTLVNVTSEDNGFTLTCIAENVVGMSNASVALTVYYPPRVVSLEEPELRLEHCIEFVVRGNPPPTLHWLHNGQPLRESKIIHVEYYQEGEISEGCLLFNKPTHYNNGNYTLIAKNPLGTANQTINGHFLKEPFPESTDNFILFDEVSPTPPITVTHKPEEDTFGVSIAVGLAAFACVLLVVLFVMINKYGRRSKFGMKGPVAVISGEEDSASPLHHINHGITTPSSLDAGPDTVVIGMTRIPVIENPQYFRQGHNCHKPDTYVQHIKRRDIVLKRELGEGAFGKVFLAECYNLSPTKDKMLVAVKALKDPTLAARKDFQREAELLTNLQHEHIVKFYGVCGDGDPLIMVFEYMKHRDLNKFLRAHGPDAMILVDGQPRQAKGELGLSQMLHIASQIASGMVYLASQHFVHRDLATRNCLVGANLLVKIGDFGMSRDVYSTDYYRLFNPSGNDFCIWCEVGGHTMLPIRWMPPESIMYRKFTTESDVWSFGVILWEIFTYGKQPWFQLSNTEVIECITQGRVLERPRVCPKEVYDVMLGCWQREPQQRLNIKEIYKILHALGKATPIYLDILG
T2 sequence (Q16288 whole entry, the tested form may be a part): as the sequence (Q16288 whole entry G623R, the tested form may be a part) above, with R623G counted along it
T3 sequence (P04629 510-796 G595R limits assumed): as the sequence (P04629 510-796 limits assumed) above, with G86R counted along it

As for `CCN1c2ccn3ncc(c3n2)C(=O)NCCOc2ncc(F)cc2C12CC2` [Example 66, (3′E,4′E)-2′-ethyl-5′-fluorospiro-[cyclopropane-1,3′-5-oxa-2,8-diaza-1(5,3)-pyrazolo[1,5-a]pyrimidina-4(3,2)-pyridinacyclononaphan]-9′-one], the concentration for half-maximal inhibition (IC50) in the assay with KM12 cells amounted to 34 nM; against TPM3-TRKA, 60 nM; on ETV6-TRKC it was 15 nM.
Turning to `C[C@@H]1CCc2ncc(F)cc2[C@@]23C[C@@H]2CCN3c2ccc3ncc(n3n2)C(=O)N1` [Example 29, (2^1R,2^5S,6R,E)-3^5-fluoro-6-methyl-2^2,7-diaza-1(6,3)-imidazo[1,2-b]pyridazina-3(3,2)-pyridina-2(2,1)-bicyclo[3.1.0]hexanacyclooctaphan-8-one], the half-inhibitory concentration (IC50) in the assay on KM12 cells, on TPM3-TRKA, against TPM3-TRKA-G595R, on ETV6-TRKC and against ETV6-TRKC-G623R was 1 nM throughout.
In the case of `C[C@@H]1CCc2ccc(F)cc2[C@@]23C[C@@H]2CCN3c2ccc3ncc(n3n2)C(=O)N1` [Example 37, (2^1R,2^5S,6R,E)-3^5-fluoro-6-methyl-2^2,7-diaza-1(6,3)-imidazo[1,2-b]pyridazina-2(2,1)-bicyclo[3.1.0]hexana-3(1,2)-benzena-cyclooctaphan-8-one], the IC50 in the assay on KM12 cells turned out to be 9 nM; against TPM3-TRKA, 1 nM; on TPM3-TRKA-G595R it was 10 nM; against ETV6-TRKC, 3 nM; on ETV6-TRKC-G623R, 8 nM.
On to `CN1c2ccn3ncc(c3n2)C(=O)NCCOc2ncc(F)cc2C12CC2` [Example 50, (3′E,4′E)-5′-fluoro-2′-methylspiro-[cyclopropane-1,3′-5-oxa-2,8-diaza-1(5,3)-pyrazolo[1,5-a]pyrimidina-4(3,2)-pyridina-cyclononaphan]-9′-one], for which the IC50 in the assay with KM12 cells is 10 nM; at TPM3-TRKA, 11 nM; against ETV6-TRKC it was 2 nM; on ETV6-TRKC-G623R, 68 nM.
For the molecule `CN1c2ccn3ncc(c3n2)C(=O)NC2(CC2)COc2ncc(F)cc2C12CC2` [Example 17, (3′E,4′E)-5′-fluoro-2′-methyldispiro[cyclopropane-1,3′-5-oxa-2,8-diaza-1(5,3)-pyrazolo[1,5-a]pyrimidina-4(3,2)-pyridinacyclononaphane-7′,1″-cyclopropan]-9′-one], the IC50 amounted to 1 nM with KM12 cells, 1 nM on TPM3-TRKA, 5 nM against TPM3-TRKA-G595R and 1 nM at ETV6-TRKC-G623R.
In the case of `C[C@H]1CNC(=O)c2cnn3ccc(nc23)N(C)C2(CC2)c2cc(F)cnc2O1` [Example 45, (S,3′E,4′E)-5′-fluoro-2′,6′-dimethylspiro-[cyclopropane-1,3′-5-oxa-2,8-diaza-1(5,3)-pyrazolo[1,5-a]pyrimidina-4(3,2)-pyridina-cyclononaphan]-9′-one], the IC50 in the assay on KM12 cells came out at 2 nM; against TPM3-TRKA, 3 nM; on TPM3-TRKA-G595R, 25 nM; on ETV6-TRKC it was 1 nM; against ETV6-TRKC-G623R, 15 nM.
The matching figures for `C[C@H]1CNC(=O)c2cnn3ccc(nc23)N2CC[C@H]3C[C@]32c2cc(F)ccc2O1` [Example 22, (1^3E,1^4E,2^1R,2^5S,5S)-3^5-fluoro-5-methyl-4-oxa-2^2,7-diaza-1(5,3)-pyrazolo[1,5-a]pyrimidina-2(2,1)-bicyclo[3.1.10]hexana-3(1,2)-benzenacyclooctaphan-8-one]: 1 nM, 1 nM, 1 nM, 1 nM and 1 nM.
For `C[C@H]1CCc2ccc(F)cc2[C@@]23C[C@@H]2CCN3c2ccn3ncc(c3n2)C(=O)N1` [Example 31, (1^3E,1^4E,2^1R,2^5S,6S)-35-fluoro-6-methyl-2^2,7-diaza-1(5,3)-pyrazolo[1,5-a]pyrimidina-2(2,1)-bicyclo[3.1.0]hexana-3(1,2)-benzenecyclo-octaphan-8-one], in that order: 1 nM, 1 nM, 1 nM, 1 nM and 3 nM.
With `O=C1NCCOc2ncc(F)cc2[C@@]23C[C@@H]2CCN3c2ccn3ncc1c3n2` [Example 23, (1^3E,1^4E,2^1R,2^5S)-35-fluoro-4-oxa-2^2,7-diaza-1(5,3)-pyrazolo[1,5-a]pyrimidina-3(3,2)-pyridina-2(2,1)-bicyclo[3.1.0]hexanacyclooctaphan-8-one], the IC50 in the assay on KM12 cells was 1 nM; against TPM3-TRKA, 1 nM; against TPM3-TRKA-G595R, 4 nM; on ETV6-TRKC-G623R, 5 nM.
On to `C[C@@H]1CCc2ccc(F)cc2[C@@]23C[C@@H]2CCN3c2ccn3ncc(c3n2)C(=O)N1` [Example 27, (1^3E,1^4E,2^1R,2^5S,6R)-3^5-fluoro-6-methyl-2^2,7-diaza-1(5,3)-pyrazolo[1,5-a]pyrimidina-2(2,1)-bicyclo[3.1.0]hexana-3(1,2)-benzeneacyclooctaphan-8-one], for which the concentration for half-maximal inhibition (IC50) in the assay on KM12 cells, at TPM3-TRKA, against TPM3-TRKA-G595R, against ETV6-TRKC and on ETV6-TRKC-G623R was 1 nM in each case.
As for `C[C@H]1CNC(=O)c2cnn3ccc(nc23)N2CCC3CC32c2cc(F)ccc2O1` (stereo partly drawn) [Example 3, (1^3E,1^4E,5S)-3^5-fluoro-5-methyl-4-oxa-2^2,7-diaza-1(5,3)-pyrazolo[1,5-a]pyrimidina-2(2,1)-bicyclo[3.1.0]hexana-3(1,2)-benzenacyclooctaphan-8-one], the half-maximal inhibitory concentration (IC50) in the assay on KM12 cells and at ETV6-TRKC was 1 nM throughout.
In the case of `O=C1NC2(CC2)COc2ncc(F)cc2C2(CC2)Nc2ccn3ncc1c3n2` [Example 41, (3′E,4′E)-5′-fluorodispiro[cyclopropane-1,3′-5-oxa-2,8-diaza-1(5,3)-pyrazolo[1,5-a]pyrimidina-4(3,2)-pyridina-cyclononaphane-7′,1″-cyclopropan]-9′-one], the IC50 with KM12 cells came to 1 nM; on TPM3-TRKA, 1 nM; on TPM3-TRKA-G595R, 30 nM; against ETV6-TRKC-G623R it was 26 nM.
In the case of `CN1c2ccn3ncc(c3n2)C(=O)NCCCOc2ncc(F)cc2C12CC2` [Example 68, (3′E,4′E)-5′-fluoro-2′-methylspiro-[cyclopropane-1,3′-5-oxa-2,9-diaza-1(5,3)-pyrazolo[1,5-a]pyrimidina-4(3,2)-pyridina-cyclodecaphan]-10′-one], the 50% inhibitory concentration (IC50) in the assay with KM12 cells was 10 nM; on TPM3-TRKA, 8 nM; on TPM3-TRKA-G595R it was 53 nM; at ETV6-TRKC-G623R, 33 nM.
As for `CN1c2ccn3ncc(c3n2)C(=O)NCCOc2ccc(F)cc2C12CC2` [Example 54, (3′E,4′E)-5′-fluoro-2′-methylspiro-[cyclopropane-1,3′-5-oxa-2,8-diaza-1(5,3)-pyrazolo[1,5-a]pyrimidina-4(1,2)-benzenacyclononaphan]-9′-one], the values for the IC50 in the assay with KM12 cells, at TPM3-TRKA and against ETV6-TRKC-G623R were 9 nM, 13 nM and 62 nM, respectively.
As for `O=C1NCCOc2ncc(F)cc2C2(CC2)Nc2ccn3ncc1c3n2` [Example 44, (3′E,4′E)-5′-fluorospiro[cyclopropane-1,3′-5-oxa-2,8-diaza-1(5,3)-pyrazolo[1,5-a]pyrimidina-4(3,2)-pyridinacyclononaphan]-9′-one], the IC50 was 35 nM in the assay with KM12 cells, 18 nM against TPM3-TRKA and 26 nM against ETV6-TRKC.
On to `C[C@H]1COc2ncc(F)cc2[C@@]23C[C@@H]2CCN3c2ccn3ncc(c3n2)C(=O)N1` [Example 28, (1^3E,1^4E,2^1R,2^5S,6S)-3^5-fluoro-6-methyl-4-oxa-2^2,7-diaza-1(5,3)-pyrazolo[1,5-a]pyrimidina-3(3,2)-pyridina-2(2,1)-bicyclo[3.1.0]hexanacyclooctaphan-8-one], for which the IC50 in the assay on KM12 cells is 1 nM; against TPM3-TRKA, 1 nM; against ETV6-TRKC-G623R, 6 nM.
For `CCN1c2ccn3ncc(c3n2)C(=O)N[C@H](C)COc2ncc(F)cc2C12CC2` [Example 64, (R,3′E,4′E)-2′-ethyl-5′-fluoro-7′-methylspiro [cyclopropane-1,3′-5-oxa-2,8-diaza-1(5,3)-pyrazolo[1,5-a]pyrimidina-4(3,2)-pyridinacyclononaphan]-9′-one], the 50% inhibitory concentration (IC50) in the assay with KM12 cells turned out to be 2 nM; against TPM3-TRKA it was 6 nM; on ETV6-TRKC-G623R, 68 nM.

For orientation: IC50 means the concentration at which inhibition is half-maximal. Lower therefore signals inhibition by little substance.

Values taken from patent US11555042B2, “Macrocyclic compounds as TRK kinases inhibitors” (FOCHON BIOSCIENCES, LTD., priority 2018, dated 2023).
